This is an account of results in publication PMC4964386, “Synthesis, Characterization, and Cytotoxicity of the First Oxaliplatin Pt(IV) Derivative Having a TSPO Ligand in the Axial Position” (International Journal of Molecular Sciences, 2016).

The test system of one data set is human U87 glioblastoma. Put plainly: MTT cell proliferation assay, U87. The format is cell-based. To be noted: U87, 72 h treatment, read-out: IC50 (concentration inducing 50% cell survival inhibition). How it is done: (§1) The cytotoxicity of the compounds, expressed as IC50 values after 72 h incubation (except in two cases where it is expressed as the % of cell viability at the maximum concentration tested of 100 μM) are reported in Table 3.
(§2) Human MCF7 breast carcinoma, human U87 glioblastoma, human LoVo colon adenocarcinoma cell lines and C6 rat glioma cells were used. As recommended for these cell lines, the base medium used (EuroClone, Pero (MI), Italy) was RPMI for MCF7 cells, DMEM for U87 and C6 cells, and F-12/HAM for LoVo cells, enriched with fetal bovine serum (10%), penicillin (100 U/mL)/streptomycin (100 μg/mL) (1%) and glutamine 200 mM (1%) (EuroClone, Pero (MI), Italy). Cells were incubated at 37 °C under an atmosphere containing 5% CO2.
(§3) Determination of cell growth inhibition was performed on MCF7, U87 and LoVo cell lines, using the 3-[4,5-dimethylthiazol-2-yl]-2,5-diphenyltetrazoliumbromide (MTT) assay. The determination of the % of cell viability after treatment with the test compounds, was performed as described by Denora et al.. Briefly, cells were dispensed on 96 microtiter plates at a density of 5000 cells/well and, after overnight incubation, were exposed for 72 h to solutions of the compounds with concentration in the range 0.01–100 µM. After addition of MTT (10 μL of 0.5% w/v in PBS) and incubation for an additional 3 h at 37 °C, the cells were lysed with 100 μL of DMSO/EtOH 1:1 (v/v) solution, dispensed in each well. A PerkinElmer 2030 multilabel reader Victor TM X3 (manufactured for WALLAC Oy, Turku, Finland by PerkinElmer Singapore was used for the absorbance determination at 570 nm.
Background: Formazan colour is commonly taken as a measure of viable cells.

Another data set has as its target T1, TSPO (Rattus norvegicus, UniProt P16257).
T1 construct: Membranes from C6 rat glioma cells were prepared as described by Piccinonna et al; endogenous in cells; host or cells: C6 rat glioma cell membranes
Nature of the data set: TSPO receptor binding assay, displacement of [3H]-PK 11195. How it is done:
Membranes from C6 rat glioma cells were prepared as described by Piccinonna et al. with minor modifications. In brief, cells scraped in PBS and harvested, were then homogenized with a Brinkman Polytron (Kinematica AG, Münstertäler, Germany). After centrifugation at 37,000× g for 30 min at 4 °C the resulting pellet was resuspended in ice-cold 10 mM PBS and stored at −80 °C until use.
Background: Loss of bound radioactivity is the signal in a displacement assay; it reports binding, not function.

The next data set deals with LoVo cells. Nature of the data set: Cell cycle analysis by flow cytometry (propidium iodide). To be noted: for Perturbation of cell cycle progression: 24 h treatment at IC50 concentrations (compound 2 at 100 µM), FCM. The format is cell-based, human. How it is done:
Figure 9 Flow cytometric analysis of LoVo cells stained with propidium iodide after 24 h of treatment with test compounds.
Then, the experimental procedure described in our previous work was performed.
For orientation: A flow cytometer gives signals particle by particle.

For data set [1], the system named is human MCF7 breast carcinoma. Put plainly: MTT cell proliferation assay, MCF7. The format is cell-based. To be noted: MCF7, 72 h treatment; for IC50: MTT, read-out: IC50 (concentration inducing 50% cell survival inhibition). How it is done: as §1, §2, §3
For data set [2], the system named is human LoVo colon adenocarcinoma. Put plainly: MTT cell proliferation assay, LoVo. The format is cell-based. The settings on record: 72 h treatment; for IC50: MTT, read-out: IC50 (concentration inducing 50% cell survival inhibition). How it is done: as §1, §2, §3
In another data set the test system is LoVo colon cancer cells. Nature of the data set: Platinum cellular uptake by ICP-MS. The format is cell-based, human. The source says: As already reported, oxaliplatin is a chemotherapeutic drug mainly used for the treatment of colorectal cancer, therefore, we extended our investigation only to LoVo cells. First we measured the intracellular accumulation of platinum by ICP-MS. […] Most likely, organic cation transporters (OCT) may facilitate the uptake of oxaliplatin [47] at short time exposure and then, after saturation, the passive diffusion of the most lipophilic compounds becomes prominent.
A Varian 820-MS ICP mass spectrometer (Varian Italia, Cernusco sul Naviglio (MI), Italy) was used to perform the inductively coupled plasma mass spectrometry (ICP-MS) analyses for the determination of the platinum cellular uptake in LoVo colon cancer cells. Cells were seeded in 60 mm tissue culture dishes at a density of 500,000 cells/dish and incubated at 37 °C in a humidified atmosphere with 5% CO2. […] The platinum content was determined by ICP-MS.

Data set [3] is described as follows: Stability in physiological-like solution by 1H-NMR and HPLC. The format is physicochemical. How it is done:
The stability of 3 was investigated by ^1H-NMR spectroscopy in DMSO-d6/D2O (5:95, v/v) at pH 7.4 (2 mM phosphate buffer) and 37 °C. […] After 8 h of incubation we observed a decrease in intensity of the peaks of 3 and the concomitant increase of a new set of peaks, marked with ● in Figure 8b (H5, 8.09 ppm; H7, 7.44 ppm; H16/20 7.35 ppm), that was assigned to compound 2 by comparison with a spectrum of the TSPO ligand recorded in similar conditions.
An HPLC analysis of the sample was performed after 108 h incubation at 37 °C. […] No reduction of the Pt(IV) complex occurred under the conditions used in this experiment.
The sample was incubated at 37 °C in the dark and ^1H-NMR spectra recorded at different time intervals.
The NMR solution was further analyzed by HPLC analysis. Stationary phase: Waters Symmetry RP-C18 column, 5 μm, 4.6 × 250 mm, 100 Å. Mobile phase: phase A = water and phase B = Acetonitrile; isocratic elution 5% phase B for 5 min, linear gradient from 5% to 50% phase B in 10 min, isocratic elution 50% phase B for 7 min, linear gradient from 50% to 5% phase B in 2 min, isocratic elution 5% phase B for 6 min. Flow rate = 0.7 mL·min^−1. UV-visible detector set at 220 nm.

The mark [4] stands for this setting: Homo sapiens, 100 µM (maximum concentration tested).
Where [5] appears, read: after 4 h treatment at IC50 concentration.
The mark [6] stands for this setting: after 24 h treatment at IC50 concentration.

Read-outs that look alike come from different tables or passages of the source.

The term viability denotes a per cent measure of how many cells are alive, often set against a control.

T1 sequence (P16257 whole entry): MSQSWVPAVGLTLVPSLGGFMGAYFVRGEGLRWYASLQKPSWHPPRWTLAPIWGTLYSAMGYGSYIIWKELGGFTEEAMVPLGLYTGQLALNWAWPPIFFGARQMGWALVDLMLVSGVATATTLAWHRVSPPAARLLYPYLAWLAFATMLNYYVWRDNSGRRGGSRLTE

On to `CCCN(CCC)C(=O)Cc1c(-c2ccc(OCC(=O)O)cc2)nc2c(Cl)cc(Cl)cn12` [compound 2, 2-(4-(6,8-dichloro-3-(2-(dipropylamino)-2-oxoethyl)imidazo[1,2-a]pyridin-2-yl)phenoxy)acetic acid], for which the IC50 with human U87 glioblastoma (Homo sapiens) is 70.2 ± 0.3 µM; on TSPO, 2.12 ± 0.1 nM. Also, the “Perturbation of cell cycle progression” value in the data set with LoVo cells is listed as “induced a sub-G0/G1 cell population”. The viability at 100 µM in data set [1] (setting [4]) turned out to be 53%; in data set [2] (setting [4]) it was 65%.
For the molecule `CCCN(CCC)C(=O)Cc1c(-c2ccc(OCC(=O)OCC[O][Pt]3([Cl])[O]C(=O)C(=O)[O]3)cc2)nc2c(Cl)cc(Cl)cn12.N[C@@H]1CCCC[C@H]1N` [compound 3, cis,trans,cis-[Pt(ethanedioato)Cl{2-(2-(4-(6,8-dichloro-3-(2-(dipropylamino)-2-oxoethyl)imidazo[1,2-a]pyridin-2-yl)phenoxy)acetate)-ethanolato}(1R,2R-DACH)]], the “Uptake by LoVo Cells (ppb of Pt)” value in the data set on LoVo colon cancer cells (setting [5]) is 0.33 ± 0.02 ppb of Pt; in the data set on LoVo colon cancer cells (setting [6]), 0.77 ± 0.02 ppb of Pt. In addition, the IC50 in the data set on human U87 glioblastoma was determined as 16.1 ± 0.3 µM; at TSPO (displacement of [3H]-PK 11195 (0.7 nM), Table 2: rat cerebral cortex, method: C6 rat glioma cell membranes, 90 min, 25 °C, read-out: IC50 TSPO), 18.6 ± 0.84 nM; in data set [1], 14.1 ± 0.1 µM; in data set [2] (listed as cis,trans,cis-[Pt(ethanedioato)Cl{2-(2-(4-(6,8-dichloro-3-(2-(dipropylamino)-2-o))))), 2310 nM; in data set [2] it was 2300 ± 100 nM. Besides, in the data set with LoVo cells (24 h treatment), the Induction of apoptosis entry is listed as “did not induce apoptosis”. For the same molecule, in the data set with LoVo cells, the “Perturbation of cell cycle progression” value is “no notable changes compared to oxaliplatin”. In addition, the “Half-life of the complex (hydrolysis of ester bond)” value in data set [3] (DMSO-d6/D2O (5:95, v/v), pH 7.4 (2 mM phosphate buffer), 37 °C, 52 μM, from NMR) is listed as “approximately 24 h”. In data set [3] (DMSO-d6/D2O (5:95, v/v), pH 7.4 (2 mM phosphate buffer), 37 °C, 1H-NMR), the “Time after which signals disappeared completely” value came out at 108 h. Moreover, the “Degradation behaviour in physiological-like conditions” value in data set [3] (pH 7.4, 37 °C, HPLC after 108 h incubation) is given as “slow hydrolysis of the ester bond”.
Regarding `O=C1[O][Pt-2]2([NH2+]C3CCCC[C@H]3[NH2+]2)[O]C1=O` (stereo in doubt) [Oxaliplatin, trans-1R,2R-diaminocyclohexane(oxalato)platinum(II)], the “Uptake by LoVo Cells (ppb of Pt)” value was 0.24 ± 0.04 ppb of Pt in the data set on LoVo colon cancer cells (setting [5]) and 0.38 ± 0.01 ppb of Pt with LoVo colon cancer cells (setting [6]). Further, the IC50 in the data set on human U87 glioblastoma was 3.1 ± 0.2 µM; in data set [2], 460 ± 10 nM. For the same molecule, in the data set with LoVo cells, the “Perturbation of cell cycle progression” value was “delayed the S-phase and started to accumulate cells in G2/M-phase and G0/G1 phase”.
Take `O=C1[O][Pt]2([Cl])([O]CCO)([NH]C3CCCCC3[NH]2)[O]C1=O` (mixture of isomers) [compound 1, Cis,trans,cis-[Pt(ethanedioato)Cl(2-hydroxyethanolato)(1R,2R-DACH)]]: the “Uptake by LoVo Cells (ppb of Pt)” value with LoVo colon cancer cells (setting [5]) is reported as 0.18 ± 0.01 ppb of Pt; in the data set with LoVo colon cancer cells (setting [6]) it was 0.59 ± 0.03 ppb of Pt. Further, the IC50 in the data set with human U87 glioblastoma is 9.1 ± 0.4 µM; in data set [1] it was 8.2 ± 0.4 µM; in data set [2] it was 2500 ± 500 nM. Also, the “Perturbation of cell cycle progression” value in the data set with LoVo cells is on record as “no notable changes compared to oxaliplatin”.
